Earlier results on 1 compound are cited in patent publication US20030065040A1, “Pharmaceutical compositions including sampatrilat dispersed in a lipoidic vehicle” (priority 2001, published 2003).

Like-named read-outs stand apart in the source and are kept apart here.

The conditions of data set [1]: dogs; reported to be as low as.
For data set [2] the following is noted: man; reported to be as low as.

Regarding `CS(=O)(=O)N[C@@H](CCCCN)C(=O)NC[C@H](CC1(C(=O)N[C@@H](Cc2ccc(O)cc2)C(=O)O)CCCC1)C(=O)O` [Sampatrilat, sampatrilat], the oral bioavailability in data set [1] is 5%; in data set [2], 2%.
